Patent US7855182B2, “Materials and methods for treatment of cancer” (The Institute of Cancer Research; Royal Cancer Hospital, priority 2004, dated 2010)

Tests used:
[1] = system: GPC5; assay: GPC5 expression in PC3M tumours grown as subcutaneous implants in treated mice; format: in vivo, athymic nude mice; conditions: preliminary
Procedure: (§1) To measure the amount of mature mRNA copies of GPC5 and GPC6 the probe was designed across the exon 1-exon 2 boundary and the exon 7-exon 8 boundary respectively. Applied Biosystems' Predeveloped GAPDH (Glyceraldehyde 3-phosphate dehydrogenase) was used as an endogenous control. 25 μL multiplex PCR reactions were run using 2× Universal TaqMan® Master Mix (Applied Biosystems Pt No. 4304437), the concentration of primers and probes shown in Table 1 and 10 ng of DNA or cDNA. These samples were run in triplicate under standard operating conditions on an ABI7700 SDS TaqMan® Machine (Applied Biosystems, CA). […] Thus, the amount of GPC5 and GPC6 was measured relative to either normal genomic DNA in the case of genomic measurements and to normal muscle in the case of expression measurements. Normal genomic DNA was extracted from the blood of a healthy donor, normal muscle cDNA was produced from RNA extracted from a pool of 11 normal muscle biopsies.
Previous gene profiling studies following treatment of K562 cells with WT1 directed ASOs, identified GPC5 as a putative WT1 target gene (manuscript in preparation). Downregulation of GPC5 expression following WT1 antisense treatment and correlating with reduced WT1 expression was confirmed in independent experiments (see FIG. 6). […]

[2] = system: HL-60; assay: Clonogenic cell survival assay in soft agar, HL-60 control leukaemic cell line not expressing GPC5; format: cell-based; conditions: HL-60 cells, compared to sham-treated
Procedure: In this assay, cells are grown at low density in suspension in soft agar following treatment. Each colony formed derives from a single surviving cell. 2 ml aliquots of diluted cells were added to polystyrene tubes (Elkay Products (UK) Ltd., Basingstoke, Hampshire, UK) containing 3 ml of medium supplemented with 20% FCS and 0.2% Agar Noble (DIFCO Laboratories, Detroit, Mich.), incubated at 37° C., and colonies containing at least 32 cells counted after 14 days. The number of colonies formed following drug treatment were compared to the number obtained following sham electroporation or a control scrambled oligonucleotide and expressed as % control treatment. In a number of separate experiments, control plating efficiencies ranged from 22-38%, with 800-1600 cells typically plated. In addition, cells from the dilution series (approx 10^3-10^4 cells/ml) were allowed to grow up in suspension culture in parallel for 3-5 days in order to confirm cytotoxicity.
Two active compounds, ISIS 276107 and ISIS 276119, were identified in this primary screen, reducing GPC5 levels to less than 30% control levels and reducing cell survival by greater than 80% (FIG. 3A). […] FIGS. 3B and C show the effects of ISIS 276107 and a control compound (ISIS 276124) at varying concentrations in the same assay.

[3] = system: K562 cells; assay: Clonogenic cell survival assay in soft agar, K562 cells; format: cell-based, human
Procedure: Antisense or control oligonucleotides were dissolved in PBS and introduced into K562 cells by low voltage electroporation: 40 μl of appropriately diluted ASOs were combined with 360 μl of cell suspension at 2×10^7 cells/ml and cells were electroporated (Bio-Rad Gene Pulser® II Electroporation system with Pulse Controller Plus capacitance extender accessory module, Bio-Rad Laboratories Ltd, Hemel Hempstead, Herts, UK) using 300V and a capacitor value of 1000 μF, and diluted to 10 ml with complete medium. From each sample appropriate duplicate aliquots of cells were serially diluted in complete medium for assessment of cytotoxicity while the remaining cells were incubated at 37° C. for 24 hours ana RNA extracted for quantification of GPC5 and/or WT1 expression levels.
In this assay, cells are grown at low density in suspension in soft agar following treatment. […] 2 ml aliquots of diluted cells were added to polystyrene tubes (Elkay Products (UK) Ltd., Basingstoke, Hampshire, UK) containing 3 ml of medium supplemented with 20% FCS and 0.2% Agar Noble (DIFCO Laboratories, Detroit, Mich.), incubated at 37° C., and colonies containing at least 32 cells counted after 14 days. The number of colonies formed following drug treatment were compared to the number obtained following sham electroporation or a control scrambled oligonucleotide and expressed as % control treatment. […]

[4] = system: GPC5 mRNA; assay: GPC5 mRNA quantification (TaqMan) after electroporation of antisense oligonucleotides into K562 cells; format: cell-based, human
Procedure: as §1, with “biopsies. […]” for “biopsies.”

[5] = system: WT1; assay: WT1 expression in PC3M tumours grown as subcutaneous implants in treated mice; format: in vivo, athymic nude mice; conditions: PC3M prostate cancer subcutaneous implants, mice treated with WT1 antisense; preliminary, data not shown
Procedure: The primer pair and probe for the quantification of WT1 were designed using the Primer Express program (Applied Biosystems) according to the recommended guidelines and as described above.: WT1—Forward primer, 5′-[…]-3′, reverse primer, 5′, […]-3′, and probe, 5′-[…]-3′. Each assay sample was analyzed in triplicate as above, and multiplexed to facilitate the measurement of gene expression levels relative to GAPDH (in vivo tumour samples) or 18 s ribosomal RNA expression (ribosomal RNA control reagents, Applied Biosystems) (in vitro cell line samples) using the standard curve method.
Previous gene profiling studies following treatment of K562 cells with WT1 directed ASOs, identified GPC5 as a putative WT1 target gene (manuscript in preparation). Downregulation of GPC5 expression following WT1 antisense treatment and correlating with reduced WT1 expression was confirmed in independent experiments (see FIG. 6). […] Direct transcriptional regulation of GPC5 by WT1 is likely since GPC5 has two WT1 consensus binding sites in its promoter region.

CC(=O)O[C@@]12CO[C@@H]1C[C@H](O)[C@@]1(C)C(=O)[C@H](O)C3=C(C)[C@@H](OC(=O)[C@H](O)[C@@H](NC(=O)OC(C)(C)C)c4ccccc4)C[C@@](O)([C@@H](OC(=O)c4ccccc4)[C@H]21)C3(C)C [docetaxol]
increase in GPC5 expression ([1]; PC3M tumours, mice treated with 15 mg/kg): 5 fold

ISIS 276107: 20 mer 2'-MOE chimeric phosphorothioate GPC5 antisense oligonucleotide, CAGCCCCCTGACAGCTCCCA (SEQ ID NO: 23) (all phosphorothioate, sugars by position and methylation of C not given here; 2'-MOE wings flank eight-deoxy central gap)
colony number following treatment [2]: no decrease

ISIS 276124: control oligonucleotide, TGGATTTGCTTTACACATCACT (SEQ ID NO: 25)
colony number following treatment [2]: no decrease | effect on cell viability / cell survival [3]: not to affect | effect on GPC5 expression / GPC5 levels [4]: not to affect

ASWT1exon5: WT1 antisense oligonucleotide targeting WT1 exon 5, GCCCCTTCTGTCCATTTCACT (SEQ ID NO: 26)
decrease in WT1 expression levels [5]: 50% | reduction in GPC5 expression ([1]; PC3M prostate cancer subcutaneous implants, mice treated with WT1 antisense, data not shown): 30%
